44 compounds from patent US9580449B2, “Compositions and methods for the production of pyrimidine and pyridine compounds with BTK inhibitory activity” (Merck Patent GmbH, priority 2011, dated 2017) can be followed below.

The target in the assay is full-length human BTK (Homo sapiens (Human), UniProt Q06187). As to the kind of experiment: BTK IC50 enzyme assay (microfluidic off-chip mobility shift kinase assay). The settings on record: incubated for 90 min. at 27 C; read-out: Time Dependent BTK Enzyme Assay IC50. The format is biochemical. In outline: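 Read-out separates phosphorylated peptide product from substrate by charge/mass in a mobility shift format with full-length human BTK.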
Chain of full-length human BTK (Q06187 whole entry): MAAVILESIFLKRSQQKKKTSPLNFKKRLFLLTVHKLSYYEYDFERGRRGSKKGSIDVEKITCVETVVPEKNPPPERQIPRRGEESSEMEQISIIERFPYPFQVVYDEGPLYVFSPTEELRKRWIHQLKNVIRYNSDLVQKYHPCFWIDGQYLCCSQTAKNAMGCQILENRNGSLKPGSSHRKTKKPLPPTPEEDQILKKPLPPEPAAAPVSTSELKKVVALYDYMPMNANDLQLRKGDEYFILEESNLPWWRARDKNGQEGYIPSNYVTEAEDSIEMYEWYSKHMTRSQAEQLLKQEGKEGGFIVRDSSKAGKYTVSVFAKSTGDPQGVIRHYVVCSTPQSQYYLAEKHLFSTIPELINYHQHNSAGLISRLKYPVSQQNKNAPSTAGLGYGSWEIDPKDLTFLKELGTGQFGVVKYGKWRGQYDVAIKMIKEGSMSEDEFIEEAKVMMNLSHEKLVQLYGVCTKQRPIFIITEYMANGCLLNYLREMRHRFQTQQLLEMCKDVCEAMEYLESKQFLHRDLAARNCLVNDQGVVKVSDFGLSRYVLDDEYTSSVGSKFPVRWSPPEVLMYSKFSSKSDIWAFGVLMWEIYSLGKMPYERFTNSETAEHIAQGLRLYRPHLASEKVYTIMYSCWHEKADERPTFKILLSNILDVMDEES
As a reminder, the IC50 is the concentration needed to halve the response being measured. On to `C=CC(=O)Nc1ccc(Oc2ncnc(N)c2-c2ccc(Oc3ccccc3)cc2)cc1` [A280, N-(4-((6-amino-5-(4-phenoxyphenyl)pyrimidin-4-yl)oxy)phenyl)acrylamide], for which the 50% inhibitory concentration (IC50) was less than 100 nM.
For `C=CC(=O)Nc1ccc(-c2cnccc2Oc2ccc(Oc3ccccc3)cc2)cc1` [A281, N-(4-(4-(4-phenoxyphenoxy)pyridin-3-yl)phenyl)acrylamide] the value was less than 1000 nM; for `CN(C)C/C=C/C(=O)Nc1cccc(-c2cnccc2Oc2ccc(Oc3ccccc3)cc2)c1` [A282, (E)-4-(dimethylamino)-N-(3-(4-(4-phenoxyphenoxy)pyridin-3-yl)phenyl)but-2-enamide], less than 100 nM; for `C=CC(=O)Nc1cccc(-c2cncnc2Nc2ccc(Oc3ccccc3)cc2)c1` [A283, N-(3-(4-((4-phenoxyphenyl)amino)pyrimidin-5-yl)phenyl)acrylamide], less than 1000 nM.
As for `C=CC(=O)N1CCCC(Nc2ncncc2-c2ccc(Oc3ccccc3)cc2)C1` (centres unmarked) [A284, 1-(3-((5-(4-phenoxyphenyl)pyrimidin-4-yl)amino)piperidin-1-yl)prop-2-en-1-one], the IC50 was less than 1000 nM.
With `C=CC(=O)Nc1cccc(Oc2ncnc(N)c2-c2ccc(C(=O)N3CCCC3)cc2)c1` [A285, N-(3-((6-amino-5-(4-(pyrrolidine-1-carbonyl)phenyl)pyrimidin-4-yl)oxy)phenyl)acrylamide] the figure was less than 1000 nM; with `C=CC(=O)N1CCCC(CNc2ncnc(N)c2-c2ccc(Oc3ccccc3)cc2)C1` (centres unmarked) [A286, 1-(3-(((6-amino-5-(4-phenoxyphenyl)pyrimidin-4-yl)amino)methyl)piperidin-1-yl)prop-2-en-1-one], less than 1000 nM.
For `C=CC(=O)NCc1ccc(-c2cnccc2Oc2ccc(Oc3ccccc3)cc2)cc1` [A287, N-(4-(4-(4-phenoxyphenoxy)pyridin-3-yl)benzyl)acrylamide] the value was less than 1000 nM.
As to `C=CC(=O)N1CCC=C(c2cnccc2Oc2ccc(Oc3ccccc3)cc2)C1` [A288, 1-(4′-(4-phenoxyphenoxy)-5,6-dihydro-[3,3′-bipyridin]-1(2H)-yl)prop-2-en-1-one], the IC50 was less than 1000 nM.
As for `C=CC(=O)Nc1cccc(Oc2ncnc(N)c2-c2ccc(OC(C)C)cc2)c1` [A289, N-(3-((6-amino-5-(4-isopropoxyphenyl)pyrimidin-4-yl)oxy)phenyl)acrylamide], the IC50 was less than 1000 nM.
In the case of `CN(C)C/C=C/C(=O)Nc1ccc(Oc2ncnc(N)c2-c2ccc(Oc3ccccc3)cc2)cc1` [A290, (E)-N-(4-((6-amino-5-(4-phenoxyphenyl)pyrimidin-4-yl)oxy)phenyl)-4-(dimethylamino)but-2-enamide], the IC50 is less than 1000 nM.
As for `C=CC(=O)Nc1cccc(Oc2ncnc(N)c2-c2cncc(OC)c2)c1` [A291, N-(3-((6-amino-5-(5-methoxypyridin-3-yl)pyrimidin-4-yl)oxy)phenyl)acrylamide], the IC50 is less than 1000 nM.
As for `C=CC(=O)N1CCC(CNc2ncnc(N)c2-c2ccc(OCc3ccccc3)cc2)CC1` [A292, 1-(4-(((6-amino-5-(4-(benzyloxy)phenyl)pyrimidin-4-yl)amino)methyl)piperidin-1-yl)prop-2-en-1-one], the IC50 was less than 1000 nM.
With `C=CC(=O)Nc1cccc(Oc2ncnc(N)c2-c2c(F)cc(OCc3ccccc3)cc2F)c1` [A294, N-(3-((6-amino-5-(4-(benzyloxy)-2,6-difluorophenyl)pyrimidin-4-yl)oxy)phenyl)acrylamide] the figure was less than 1000 nM; with `CC#CC(=O)Nc1cccc(-c2cnccc2Oc2ccc(Oc3ccccc3)cc2)c1` [A296, N-(3-(4-(4-phenoxyphenoxy)pyridin-3-yl)phenyl)but-2-ynamide], less than 1000 nM; with `C=CC(=O)Nc1ccc(Oc2ccncc2-c2ccc(Oc3ccccc3)cc2)cc1` [A297, N-(4-((3-(4-phenoxyphenyl)pyridin-4-yl)oxy)phenyl)acrylamide], more than 1000 nM.
For `C=CC(=O)NC1CCCN(c2ncnc(N)c2-c2ccc(Oc3ccccc3)cc2)C1` (centres unmarked) [A298, N-(1-(6-amino-5-(4-phenoxyphenyl)pyrimidin-4-yl)piperidin-3-yl)acrylamide], the IC50 is more than 1000 nM.
As to `C=CC(=O)N1CCC(Nc2ncnc(N)c2-c2ccc(Oc3ccccc3)cc2)CC1` [A299, 1-(4-((6-amino-5-(4-phenoxyphenyl)pyrimidin-4-yl)amino)piperidin-1-yl)prop-2-en-1-one], the IC50 is more than 1000 nM.
Consider `Nc1cccc(-c2c(Oc3ccc(Oc4ccccc4)cc3)ccnc2N)c1` [A300, 3-(3-aminophenyl)-4-(4-phenoxyphenoxy)pyridin-2-amine], for which the IC50 is less than 1000 nM.
For `Nc1ncnc(Oc2ccc(Oc3ccccc3)cc2)c1-c1cccc(NC(=O)/C=C/CN2CCCC(F)(F)C2)c1` [A301, (E)-N-(3-(4-amino-6-(4-phenoxyphenoxy)pyrimidin-5-yl)phenyl)-4-(3,3-difluoropiperidin-1-yl)but-2-enamide] the value was more than 1000 nM; for `C=CC(=O)NCc1cccc(-c2cnccc2Oc2ccc(Oc3ccccc3)cc2)c1` [A302, N-(3-(4-(4-phenoxyphenoxy)pyridin-3-yl)benzyl)acrylamide], more than 1000 nM.
Consider `Nc1ccc(Oc2ncnc(N)c2-c2ccc(Oc3ccccc3)cc2)cc1` [A303, 6-(4-aminophenoxy)-5-(4-phenoxyphenyl)pyrimidin-4-amine], for which the half-maximal inhibitory concentration (IC50) was more than 1000 nM.
With `CC#CC(=O)NCc1cccc(-c2cnccc2Oc2ccc(Oc3ccccc3)cc2)c1` [A304, N-(3-(4-(4-phenoxyphenoxy)pyridin-3-yl)benzyl)but-2-ynamide], the IC50 is more than 1000 nM.
For `Nc1cccc(Oc2ncnc(N)c2-c2ccc(Oc3ccccc3)cc2)c1` [A305, 6-(3-aminophenoxy)-5-(4-phenoxyphenyl)pyrimidin-4-amine], the half-maximal inhibitory concentration (IC50) was more than 1000 nM.
`C/C=C/C(=O)Nc1cccc(-c2cnccc2Oc2ccc(Oc3ccccc3)cc2)c1` [A307, (E)-N-(3-(4-(4-phenoxyphenoxy)pyridin-3-yl)phenyl)but-2-enamide]: the concentration for half-maximal inhibition (IC50) is more than 1000 nM.
Take `CCC(=O)Nc1ccc(Oc2ncnc(N)c2-c2ccc(Oc3ccccc3)cc2)cc1` [A308, N-(4-((6-amino-5-(4-phenoxyphenyl)pyrimidin-4-yl)oxy)phenyl)propionamide]: the IC50 was more than 1000 nM.
With `C=CC(=O)NCC1CCCN(c2ncnc(N)c2-c2ccc(Oc3ccccc3)cc2)C1` (centres unmarked) [A309, N-((1-(6-amino-5-(4-phenoxyphenyl)pyrimidin-4-yl)piperidin-3-yl)methyl)acrylamide], the IC50 was more than 1000 nM.
For `CCC(=O)Nc1cccc(-c2c(Oc3ccc(Oc4ccccc4)cc3)ccnc2N)c1` [A310, N-(3-(2-amino-4-(4-phenoxyphenoxy)pyridin-3-yl)phenyl)propionamide] the value was more than 1000 nM.
`C=CC(=O)Nc1cccc(-c2c(N)ncnc2N[C@H](C)c2ccccc2)c1` [A311, (R)-N-(3-(4-amino-6-((1-phenylethyl)amino)pyrimidin-5-yl)phenyl)acrylamide]: the IC50 is more than 1000 nM.
On to `Nc1cccc(-c2cnccc2Oc2ccc(Oc3ccccc3)cc2)c1` [A312, 3-(4-(4-phenoxyphenoxy)pyridin-3-yl)aniline], for which the IC50 is more than 1000 nM.
For `Nc1cccc(Oc2ccnc(N)c2-c2ccc(Oc3ccccc3)cc2)c1` [A313, 4-(3-aminophenoxy)-3-(4-phenoxyphenyl)pyridin-2-amine] the value was more than 1000 nM; for `Nc1ccc(-c2cnccc2Oc2ccc(Oc3ccccc3)cc2)cc1` [A314, 4-(4-(4-phenoxyphenoxy)pyridin-3-yl)aniline], more than 1000 nM; for `NCc1ccc(-c2cnccc2Oc2ccc(Oc3ccccc3)cc2)cc1` [A315, (4-(4-(4-phenoxyphenoxy)pyridin-3-yl)phenyl)methanamine], more than 1000 nM.
With `NCc1cccc(-c2cnccc2Oc2ccc(Oc3ccccc3)cc2)c1` [A316, (3-(4-(4-phenoxyphenoxy)pyridin-3-yl)phenyl)methanamine] the figure was more than 1000 nM; with `Nc1cccc(-c2c(N)ncnc2Oc2ccc(Oc3ccccc3)cc2)c1` [A317, 5-(3-aminophenyl)-6-(4-phenoxyphenoxy)pyrimidin-4-amine], more than 1000 nM.
With `CCC(=O)Nc1cccc(-c2cnccc2Oc2ccc(Oc3ccccc3)cc2)c1` [A319, N-(3-(4-(4-phenoxyphenoxy)pyridin-3-yl)phenyl)propionamide] the figure was more than 1000 nM.
On to `C=C(C)C(=O)Nc1cccc(-c2cnccc2Oc2ccc(Oc3ccccc3)cc2)c1` [A322, N-(3-(4-(4-phenoxyphenoxy)pyridin-3-yl)phenyl)methacrylamide], for which the IC50 is more than 1000 nM.
On to `CCC(=O)NCc1ccc(-c2cnccc2Oc2ccc(Oc3ccccc3)cc2)cc1` [A324, N-(4-(4-(4-phenoxyphenoxy)pyridin-3-yl)benzyl)propionamide], for which the IC50 is more than 1000 nM.
As for `CCC(=O)Nc1cccc(-c2c(N)ncnc2Oc2ccc(Oc3ccccc3)cc2)c1` [A325, N-(3-(4-amino-6-(4-phenoxyphenoxy)pyrimidin-5-yl)phenyl)propionamide], the IC50 was more than 1000 nM.
With `CCC(=O)Nc1cccc(Oc2ncnc(N)c2-c2ccc(Oc3ccccc3)cc2)c1` [A326, N-(3-((6-amino-5-(4-phenoxyphenyl)pyrimidin-4-yl)oxy)phenyl)propionamide], the IC50 was more than 1000 nM.
Regarding `C/C=C/C(=O)NCc1cccc(-c2cnccc2Oc2ccc(Oc3ccccc3)cc2)c1` [A327, (E)-N-(3-(4-(4-phenoxyphenoxy)pyridin-3-yl)benzyl)but-2-enamide], the IC50 was more than 1000 nM.
In the case of `N#CC1(C(=O)Nc2cccc(Oc3ncnc(N)c3-c3ccc(Oc4ccccc4)cc3)c2)CC1` [A329, N-(3-((6-amino-5-(4-phenoxyphenyl)pyrimidin-4-yl)oxy)phenyl)-1-cyanocyclopropanecarboxamide], the IC50 is more than 1000 nM.
For the compound `CCC(=O)N1CCC(CNc2ncnc(N)c2-c2ccc(Oc3ccccc3)cc2)CC1` [A333, 1-(4-(((6-amino-5-(4-phenoxyphenyl)pyrimidin-4-yl)amino)methyl)piperidin-1-yl)propan-1-one], the IC50 is less than 1000 nM.
As for `C=CC(=O)N1CCC(CNc2ncncc2-c2ccc(Oc3ccccc3)cc2)CC1` [A334, 1-(4-(((5-(4-phenoxyphenyl)pyrimidin-4-yl)amino)methyl)piperidin-1-yl)prop-2-en-1-one], the IC50 is less than 100 nM.
